Measurements from patent US12629385B2, “Stable AST-3424 injection preparation and preparation method” (OBI PHARMA, INC., priority 2019, dated 2026).

Columns and labels:
[1] = Solubility test of AST-3424 at 25° C. (shaking incubator, HPLC content, pH); assay type: physicochemical; conditions: for Content (solubility study): 25° C.
Procedure: An appropriate amount of AST-3424 (hereinafter referred to as the active pharmaceutical ingredient or API) was measured, and put in a suitable container containing 40 ml of the above solution (20 ml for an organic solvent) until there were excessive AST-3424 oil droplets in the solution.
The samples were placed in a constant-temperature shaking incubator, the temperature of which was maintained at 25° C. The samples were shaken at an appropriate speed (100 rpm). Sampling was carried out at each predetermined time point as listed in Table 1, and the pH was examined. Then, the samples were centrifuged (10000 rpm, 10 min), and diluted to a concentration suitable for HPLC analysis (note: accurately recording the dilution ratio after the test) by adding the corresponding solution or organic solvent (dissolving API for solubility study), so as to obtain solubility data.
(§1) For samples used for the assay in the solubility study, about 1 ml of the culture medium was measured, then the resultant was centrifuged at 10000 rpm for 10 min, and the clear solution in […] was collected for HPLC analysis. For the study on solution stability, the samples could be directly injected into HPLC for analysis.
(§2) Content determination by HPLC method: AST-3424 was used as an external standard for quantitation.
According to the results of solution stability, AST-3424 was very unstable in the pH4.5 acetate buffer. Therefore, the solubility was tested in the pH6.8 phosphate buffer, the pH7.4 phosphate buffer, the pH10.0 alkaline borate buffer, and the purified water. An appropriate amount of AST-3424 was weighed and put into 40 mL of medium (ethanol/propylene glycol: 8 mL, 50:50V/V) until there were excessive floccules in the solution. If the solubility of API in the aqueous solution was greater than 2% (20 mg/ml), there was no need to add more API.

[2] = Study on solution stability of AST-3424 in different solutions (HPLC content, pH); assay type: physicochemical
Procedure: Approximate 107.32 mg of AST-3424 (50% v/v, ethanol) was measured, and put in 50-ml volumetric flasks, to which solvents (organic solvents, buffer solutions, or purified water) were added to the scale, respectively. At each predetermined time point, 1 ml of the sample was measured for HPLC analysis. If API was stable in different pH solutions, the sampling time would be extended, e.g., 5 days or longer.
as §1, §2
UVDAD detector: wavelength: 230 nm. C18 column, column temperature: 25° C.
• A: 10 mmol/L ammonium acetate solution obtained by dissolving ammonium acetate in a mixed solvent of 95% water and 5% acetonitrile by volume; • B: 8 mmol/L ammonium acetate solution obtained by dissolving ammonium acetate in a mixed solvent of 95% acetonitrile and 5% water by volume;
Gradient elution was performed.

For `C[C@H](OP(=O)(N1CC1)N1CC1)c1ccc([N+](=O)[O-])c(Oc2cccc(C(=O)N(C)C)c2)c1` [AST-3424, (S)-1-(3-(3-N,N-dimethylaminocarbonyl)phenoxyl-4-nitrophenyl)-1-ethyl-N,N′-bis(ethylene)phosphoramidate], the “Content (solubility study)” value ([1]; Ethanol/propylene glycol (50:50, v/v), 1 h) was 271.28 mg/mL, the “Content (solubility study)” value ([1]; Ethanol/propylene glycol (50:50, v/v), 8 h) was 301.33 mg/mL and the “Content (solubility study)” value ([1]; Ethanol/propylene glycol (50:50, v/v), 24 h) was 298.85 mg/mL. For the same compound, the “Solubility, description of terms” value ([1]; alcohol solvents such as ethanol/propylene glycol (50:50, v/v)) was “Freely soluble”, the “pH value (solubility study)” value ([1]; excess AST-3424 in pH 6.8 phosphate buffer, 1 h) was 6.856 and the “pH value (solubility study)” value ([1]; excess AST-3424 in pH 6.8 phosphate buffer, 4 h) was 6.837. For the same compound, the “pH value (solubility study)” value ([1]; excess AST-3424 in pH 6.8 phosphate buffer, 8 h) was 6.855, the “pH value (solubility study)” value ([1]; excess AST-3424 in pH 6.8 phosphate buffer, 24 h) was 6.841 and the “pH value (solubility study)” value ([1]; excess AST-3424 in pH 6.8 phosphate buffer, 48 h) was 6.860. For the same compound, the “pH value (solubility study)” value ([1]; excess AST-3424 in pH 7.4 phosphate buffer, 1 h) was 7.477, the “pH value (solubility study)” value ([1]; excess AST-3424 in pH 7.4 phosphate buffer, 4 h) was 7.462 and the “pH value (solubility study)” value ([1]; excess AST-3424 in pH 7.4 phosphate buffer, 8 h) was 7.475. The “pH value (solubility study)” value ([1]; excess AST-3424 in pH 7.4 phosphate buffer, 24 h) was 7.455, the “pH value (solubility study)” value ([1]; excess AST-3424 in pH 7.4 phosphate buffer, 48 h) was 7.482 and the “pH value (solubility study)” value ([1]; excess AST-3424 in pH 10.0 alkaline borate buffer, 1 h) was 9.998. For the same compound, the “pH value (solubility study)” value ([1]; excess AST-3424 in pH 10.0 alkaline borate buffer, 4 h) was 9.980, the “pH value (solubility study)” value ([1]; excess AST-3424 in pH 10.0 alkaline borate buffer, 8 h) was 9.971 and the “pH value (solubility study)” value ([1]; excess AST-3424 in pH 10.0 alkaline borate buffer, 24 h) was 9.932. The “pH value (solubility study)” value ([1]; excess AST-3424 in pH 10.0 alkaline borate buffer, 48 h) was 9.952, the “pH value (solubility study)” value ([1]; excess AST-3424 in purified water, 1 h) was 5.004 and the “pH value (solubility study)” value ([1]; excess AST-3424 in purified water, 4 h) was 5.651. The “pH value (solubility study)” value ([1]; excess AST-3424 in purified water, 8 h) was 5.971, the “pH value (solubility study)” value ([1]; excess AST-3424 in purified water, 24 h) was 6.378 and the “pH value (solubility study)” value ([1]; excess AST-3424 in purified water, 48 h) was 6.512. The “Solubility (initial investigation, words)” value ([1]; methanol, propanol, butanol, ethylene glycol, propylene glycol, glycerol, 1,3-butanediol, 1,2-butanediol) was “good solubility”, the “Content (solubility study)” value ([1]; pH 6.8 (phosphate buffer), 4 h) was 22.92 mg/mL and the “Content (solubility study)” value ([1]; pH 6.8 (phosphate buffer), 8 h) was 23.03 mg/mL. For the same compound, the “pH of the solutions of API at different time points” value ([1]; pH6.8, pH7.4 and pH10.0 media) was “remained unchanged”, the “Content (solubility study)” value ([1]; pH 7.4 (phosphate buffer), 1 h) was 23.65 mg/mL and the “Content (solubility study)” value ([1]; pH 7.4 (phosphate buffer), 4 h) was 23.47 mg/mL. The “Content (solubility study)” value ([1]; pH 7.4 (phosphate buffer), 8 h) was 23.56 mg/mL, the “Content (solubility study)” value ([1]; pH 7.4 (phosphate buffer), 24 h) was 23.65 mg/mL and the “Content (solubility study)” value ([1]; pH 10.0 (alkaline borate buffer), 1 h) was 23.50 mg/mL. For the same compound, the “Content (solubility study)” value ([1]; pH 10.0 (alkaline borate buffer), 4 h) was 23.56 mg/mL, the “Content (solubility study)” value ([1]; pH 10.0 (alkaline borate buffer), 8 h) was 23.48 mg/mL and the “Content (solubility study)” value ([1]; pH 10.0 (alkaline borate buffer), 24 h) was 23.49 mg/mL. For the same compound, the “Solubility, description of terms” value ([1]; water, pH6.8 phosphate buffer, pH7.4 phosphate buffer, pH10.0 alkaline borate buffer) was “sparingly soluble”, the pH value ([2]; AST-3424 solution in pH 4.5 acetate buffer, 0 h) was 4.497 and the pH value ([2]; AST-3424 solution in pH 4.5 acetate buffer, 72 h) was 4.477. The pH value ([2]; AST-3424 solution in pH 6.8 phosphate buffer, 0 h) was 6.815, the pH value ([2]; AST-3424 solution in pH 6.8 phosphate buffer, 72 h) was 6.855 and the pH value ([2]; AST-3424 solution in pH 7.4 phosphate buffer, 0 h) was 7.481. It also gave a pH value ([2]; AST-3424 solution in pH 7.4 phosphate buffer, 72 h) of 7.534, a pH value ([2]; AST-3424 solution in pH 10.0 alkaline borate buffer, 0 h) of 9.984 and a pH value ([2]; AST-3424 solution in pH 10.0 alkaline borate buffer, 72 h) of 10.023. It also gave a pH value ([2]; AST-3424 solution in purified water, 0 h) of 5.152, a pH value ([2]; AST-3424 solution in purified water, 72 h) of 6.435 and a Content ([2]; Ethanol/propylene glycol (50:50, v/v), 0 h, room temperature) of 1.295 mg/mL. The Content ([2]; Ethanol/propylene glycol (50:50, v/v), 1 h, room temperature) was 1.287 mg/mL, the Content ([2]; Ethanol/propylene glycol (50:50, v/v), 4 h, room temperature) was 1.287 mg/mL and the Content ([2]; Ethanol/propylene glycol (50:50, v/v), 8 h, room temperature) was 1.287 mg/mL. For the same compound, the Content ([2]; Ethanol/propylene glycol (50:50, v/v), 24 h, room temperature) was 1.302 mg/mL, the Content ([2]; Ethanol/propylene glycol (50:50, v/v), 48 h, room temperature) was 1.284 mg/mL and the Content ([2]; Ethanol/propylene glycol (50:50, v/v), 72 h, room temperature) was 1.275 mg/mL. The Content ([2]; Ethanol, 0 h, room temperature) was 1.238 mg/mL, the Content ([2]; Ethanol, 1 h, room temperature) was 1.280 mg/mL and the Content ([2]; Ethanol, 4 h, room temperature) was 1.246 mg/mL. The Content ([2]; Ethanol, 8 h, room temperature) was 1.240 mg/mL, the Content ([2]; Ethanol, 24 h, room temperature) was 1.240 mg/mL and the Content ([2]; Ethanol, 48 h, room temperature) was 1.278 mg/mL. It also gave a Content ([2]; Ethanol, 72 h, room temperature) of 1.236 mg/mL, a Content ([2]; Purified water, 0 h, room temperature) of 1.186 mg/mL and a Content ([2]; Purified water, 1 h, room temperature) of 1.126 mg/mL. For the same compound, the Content ([2]; Purified water, 4 h, room temperature) was 1.056 mg/mL, the Content ([2]; Purified water, 8 h, room temperature) was 1.005 mg/mL and the Content ([2]; Purified water, 24 h, room temperature) was 0.918 mg/mL. The Content ([2]; Purified water, 48 h, room temperature) was 0.860 mg/mL, the Content ([2]; Purified water, 72 h, room temperature) was 0.810 mg/mL and the “Solution stability” value ([2]; pH4.5 acetate buffer) was “very unstable”. For the same compound, the Content ([2]; pH 4.5 acetate buffer, 0 h, room temperature) was 0.673 mg/mL, the Content ([2]; pH 4.5 acetate buffer, 1 h, room temperature) was 0.413 mg/mL and the Content ([2]; pH 4.5 acetate buffer, 4 h, room temperature) was 0.218 mg/mL. It also gave a Content ([2]; pH 4.5 acetate buffer, 8 h, room temperature) of 0.093 mg/mL, a Content ([2]; pH 4.5 acetate buffer, 24 h, room temperature) of 0.013 mg/mL and a Content ([2]; pH 6.8 phosphate buffer, 0 h, room temperature) of 1.202 mg/mL. The Content ([2]; pH 6.8 phosphate buffer, 1 h, room temperature) was 1.200 mg/mL, the Content ([2]; pH 6.8 phosphate buffer, 4 h, room temperature) was 1.193 mg/mL and the Content ([2]; pH 6.8 phosphate buffer, 8 h, room temperature) was 1.185 mg/mL. It also gave a Content ([2]; pH 6.8 phosphate buffer, 24 h, room temperature) of 1.168 mg/mL, a Content ([2]; pH 6.8 phosphate buffer, 48 h, room temperature) of 1.145 mg/mL and a Content ([2]; pH 6.8 phosphate buffer, 72 h, room temperature) of 1.102 mg/mL. The “Solution stability” value ([2]; pH7.4 phosphate buffer) was “stable”, the Content ([2]; pH 7.4 phosphate buffer, 0 h, room temperature) was 1.267 mg/mL and the Content ([2]; pH 7.4 phosphate buffer, 1 h, room temperature) was 1.266 mg/mL. It also gave a Content ([2]; pH 7.4 phosphate buffer, 4 h, room temperature) of 1.266 mg/mL, a Content ([2]; pH 7.4 phosphate buffer, 8 h, room temperature) of 1.262 mg/mL and a Content ([2]; pH 7.4 phosphate buffer, 24 h, room temperature) of 1.262 mg/mL. It also gave a Content ([2]; pH 7.4 phosphate buffer, 48 h, room temperature) of 1.249 mg/mL, a Content ([2]; pH 7.4 phosphate buffer, 72 h, room temperature) of 1.228 mg/mL and a Content ([2]; pH 10.0 (alkaline borate buffer), 0 h, room temperature) of 1.265 mg/mL. For the same compound, the Content ([2]; pH 10.0 (alkaline borate buffer), 1 h, room temperature) was 1.265 mg/mL, the Content ([2]; pH 10.0 (alkaline borate buffer), 4 h, room temperature) was 1.261 mg/mL and the Content ([2]; pH 10.0 (alkaline borate buffer), 8 h, room temperature) was 1.258 mg/mL. For the same compound, the Content ([2]; pH 10.0 (alkaline borate buffer), 24 h, room temperature) was 1.261 mg/mL, the Content ([2]; pH 10.0 (alkaline borate buffer), 48 h, room temperature) was 1.257 mg/mL and the Content ([2]; pH 10.0 (alkaline borate buffer), 72 h, room temperature) was 1.242 mg/mL. The “Time for which API was stable in solution” value ([2]; room temperature, ethanol, ethanol/propylene glycol=1/1, pH7.4 and pH10.0 buffer solutions) was “at least 72 h”, the “Solution stability” value ([2]; room temperature, pH4.5 solution and water) was “unstable” and the “Time for which API was stable in solution” value ([2]; room temperature, pH6.8 solution) was “at least 24 h”. For the same compound, the “Solution stability” value ([2]; water and pH6.8 phosphate buffer) was “relatively poor stability”.
